Test results published in paper PMC7137441, “Synthesis, biological evaluation and molecular docking analysis of vaniline–benzylidenehydrazine hybrids as potent tyrosinase inhibitors” (BMC Chemistry, 2020).
“Also recorded” adds a separate entry of the source.

Target: T1, mushroom tyrosinase (Agaricus bisporus, UniProt C7FF04)
Test: Mushroom tyrosinase inhibition assay (L-DOPA as substrate)
Assay type: biochemical
Conditions: not given
Experimental: All test samples were first dissolved in DMSO at 50 mM and diluted to the required concentrations. First, […] of tyrosinase (0.5 mg ml) was mixed with 160 μl of 50 mM phosphate buffer (pH = 6.8) in 96-well microplates and then 10 μl of different concentration of the test sample was added. […] DMSO without test compounds and kojic acid were used as the control and positive control respectively. The tyrosinase activity without inhibitor was defined as 100%. Each concentration was analyzed in three independent experiments run in triplicate.

T1 sequence (C7FF04 1-392): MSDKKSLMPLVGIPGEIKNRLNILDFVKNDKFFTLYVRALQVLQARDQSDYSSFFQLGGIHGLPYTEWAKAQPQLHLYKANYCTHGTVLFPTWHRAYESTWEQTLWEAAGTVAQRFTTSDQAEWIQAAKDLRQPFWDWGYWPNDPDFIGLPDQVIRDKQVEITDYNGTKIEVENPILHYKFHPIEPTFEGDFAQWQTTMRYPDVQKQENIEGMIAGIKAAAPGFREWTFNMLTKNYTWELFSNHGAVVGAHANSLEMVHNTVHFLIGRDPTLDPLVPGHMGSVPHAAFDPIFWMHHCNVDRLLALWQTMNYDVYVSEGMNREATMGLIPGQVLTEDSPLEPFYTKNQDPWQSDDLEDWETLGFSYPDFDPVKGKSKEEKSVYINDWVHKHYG

For `CCOc1cc(/C=N/NC(=O)c2ccc(O)c(OC)c2)ccc1O` [Compound 4i, (E)-Nʹ-(3-ethoxy-4-hydroxybenzylidene)-4-hydroxy-3-methoxybenzohydrazide], the IC50 was 1.58 µM.

Same assay, conditions: L-DOPA as the substrate; mean ± SEM of three to five independent experiments; read-out: IC50 against tyrosinase enzyme

Compared with `COc1cc(C(=O)N/N=C/c2ccc(O)cc2O)ccc1O` [Compound 4a, (E)-Nʹ-(2,4-dihydroxybenzylidene)-4-hydroxy-3-methoxybenzohydrazide], `COc1cc(C(=O)N/N=C/c2ccc(O)cc2)ccc1O` [Compound 4b, (E)-4-hydroxy-Nʹ-(4-hydroxybenzylidene)-3-methoxybenzohydrazide] is 2.4-fold lower in IC50: 37.1 ± 1.02 µM for the first, 15.2 ± 1.34 µM for the second.

Compared with `COc1ccc(/C=N/NC(=O)c2ccc(O)c(OC)c2)cc1` [Compound 4c, (E)-4-hydroxy-3-methoxy-Nʹ-(4-methoxybenzylidene)benzohydrazide], `COc1cc(C(=O)N/N=C/c2ccc(Br)cc2)ccc1O` [Compound 4e, (E)-Nʹ-(4-bromobenzylidene)-4-hydroxy-3-methoxybenzohydrazide] is 18-fold lower in IC50: 35.6 ± 2.8 µM for the first, 1.95 ± 2.34 µM for the second.

Going from `COc1cc(C(=O)N/N=C/c2ccc(OC)c(OC)c2)ccc1O` [Compound 4d, (E)-Nʹ-(3,4-dimethoxybenzylidene)-4-hydroxy-3-methoxy benzohydrazide] to `COc1ccc(/C=N/NC(=O)c2ccc(O)c(OC)c2)cc1O` [Compound 4h, (E)-4-hydroxy-Nʹ-(3-hydroxy-4-methoxybenzylidene)-3-methoxybenzohydrazide], the IC50 falls from 20.9 ± 2.09 µM to 10 ± 1.6 µM (2.1-fold). The second is the more potent here.

First: COc1cc(C(=O)N/N=C/c2ccc([N+](=O)[O-])cc2)ccc1O [Compound 4f, (E)-4-hydroxy-3-methoxy-Nʹ-(4-nitrobenzylidene)benzohydrazide]
Second: COc1cc(C(=O)N/N=C/c2cccc([N+](=O)[O-])c2)ccc1O [Compound 4k, (E)-4-hydroxy-3-methoxy-Nʹ-(3-nitrobenzylidene)benzohydrazide]
The IC50 of the first is 5-fold higher: 29.1 ± 0.89 µM for the first, 5.84 ± 1.9 µM for the second.

First: COc1cc(C(=O)N/N=C/c2cc(OC)c(O)c(OC)c2)ccc1O [Compound 4g, (E)-4-hydroxy-Nʹ-(4-hydroxy-3,5-dimethoxybenzylidene)-3-methoxy benzohydrazide]
Second: COc1cc(C(=O)N/N=C/c2ccccc2[N+](=O)[O-])ccc1O [Compound 4j, (E)-4-hydroxy-3-methoxy-Nʹ-(2-nitrobenzylidene)benzohydrazide]
The IC50 of the first is 3.7-fold lower: 4.58 µM for the first, 17 ± 2.03 µM for the second. The first is the more potent here.

Target: T1, mushroom tyrosinase
Test: Kinetic study of tyrosinase inhibition (Lineweaver-Burk plot, L-DOPA as substrate)
Assay type: biochemical
Conditions: 4i at 10 µM; L-DOPA 0.25-1 mM
Experimental: The inhibition constants, Ki, and Vm for tyrosinase inhibitors were determined by fitting the kinetic data to a competitive, noncompetitive, or mixed inhibition model by nonlinear regression analysis using GraphPad Prism.
To determine the inhibition kinetics of vaniline-benzylidenehydrazine a series of experiments were performed. Different concentrations of the 4i (0, 10 and 25 µM) was chosen to get a series of straight lines. Pre-incubation and measurement time were the same as discussed in mushroom tyrosinase inhibition assay protocol. The maximal velocity (Vmax) and the Michaelis constant (Km) of the tyrosinase activity were determined by the Line weaver Burk plot at various concentrations of L-DOPA (0.25, 0.5, 0.75 and 1 mM) as a substrate. The inhibition type of the enzyme was assayed by Line weaver Burk plots of inverse of velocities (1/V) versus inverse of substrate concentrations 1/[S] mM.

For `CCOc1cc(/C=N/NC(=O)c2ccc(O)c(OC)c2)ccc1O` [Compound 4i, (E)-Nʹ-(3-ethoxy-4-hydroxybenzylidene)-4-hydroxy-3-methoxybenzohydrazide], the Vm was 0.18 OD/Min.

Same assay, conditions: 4i at 25 µM; L-DOPA 0.25-1 mM

With `CCOc1cc(/C=N/NC(=O)c2ccc(O)c(OC)c2)ccc1O` [Compound 4i, (E)-Nʹ-(3-ethoxy-4-hydroxybenzylidene)-4-hydroxy-3-methoxybenzohydrazide] the Vm was 0.17 OD/Min.

Same assay, conditions: Lineweaver-Burk plot, 4i at 0, 10 and 25 µM

For `CCOc1cc(/C=N/NC(=O)c2ccc(O)c(OC)c2)ccc1O` [Compound 4i, (E)-Nʹ-(3-ethoxy-4-hydroxybenzylidene)-4-hydroxy-3-methoxybenzohydrazide], the Type of inhibition was “uncompetitive inhibition; also recorded: uncompetitive inhibitor”.

Test system: not given
Test: not given
Conditions: not given

First: COc1cc(C(=O)N/N=C/c2ccc(O)cc2O)ccc1O [Compound 4a, (E)-Nʹ-(2,4-dihydroxybenzylidene)-4-hydroxy-3-methoxybenzohydrazide]
Second: COc1cc(C(=O)N/N=C/c2ccc(O)cc2)ccc1O [Compound 4b, (E)-4-hydroxy-Nʹ-(4-hydroxybenzylidene)-3-methoxybenzohydrazide]
The melting point of the first is lower: 243 °C for the first, 256 °C for the second.

Compared with `COc1ccc(/C=N/NC(=O)c2ccc(O)c(OC)c2)cc1` [Compound 4c, (E)-4-hydroxy-3-methoxy-Nʹ-(4-methoxybenzylidene)benzohydrazide], `COc1cc(C(=O)N/N=C/c2ccc(Br)cc2)ccc1O` [Compound 4e, (E)-Nʹ-(4-bromobenzylidene)-4-hydroxy-3-methoxybenzohydrazide] is higher in melting point: 110 °C for the first, 115 °C for the second.

Compared with `COc1cc(C(=O)N/N=C/c2ccc(OC)c(OC)c2)ccc1O` [Compound 4d, (E)-Nʹ-(3,4-dimethoxybenzylidene)-4-hydroxy-3-methoxy benzohydrazide], `COc1ccc(/C=N/NC(=O)c2ccc(O)c(OC)c2)cc1O` [Compound 4h, (E)-4-hydroxy-Nʹ-(3-hydroxy-4-methoxybenzylidene)-3-methoxybenzohydrazide] is lower in melting point: 231 °C for the first, 98 °C for the second.

First: COc1cc(C(=O)N/N=C/c2ccc([N+](=O)[O-])cc2)ccc1O [Compound 4f, (E)-4-hydroxy-3-methoxy-Nʹ-(4-nitrobenzylidene)benzohydrazide]
Second: COc1cc(C(=O)N/N=C/c2cccc([N+](=O)[O-])c2)ccc1O [Compound 4k, (E)-4-hydroxy-3-methoxy-Nʹ-(3-nitrobenzylidene)benzohydrazide]
The melting point of the first is higher: 195 °C for the first, 151 °C for the second.

`COc1cc(C(=O)N/N=C/c2cc(OC)c(O)c(OC)c2)ccc1O` [Compound 4g, (E)-4-hydroxy-Nʹ-(4-hydroxy-3,5-dimethoxybenzylidene)-3-methoxy benzohydrazide] and `COc1cc(C(=O)N/N=C/c2ccccc2[N+](=O)[O-])ccc1O` [Compound 4j, (E)-4-hydroxy-3-methoxy-Nʹ-(2-nitrobenzylidene)benzohydrazide] are the same in melting point: 151 °C for the first, 151 °C for the second.
